Results taken from ChEMBL document CHEMBL5113421, “Development of novel conformationally restricted selective Clk1/4 inhibitors through creating an intramolecular hydrogen bond involving an imide linker” (Eur J Med Chem, 2022).

How the values were obtained:
[1] = target: T1, Dual specificity protein kinase CLK1 (Homo sapiens, UniProt P49759); experiment: Inhibition of human recombinant GST-tagged Clk1 (129 to 484 residues) expressed in Escherichia coli expression system at 100 nM using GRSRSRSRSRSRSRS peptide as substrate incubated for 15 mins in presence of ATP by phosphoimager analysis relative to control
Target sequence in this assay (P49759 whole entry, looked up, the tested form may be a part): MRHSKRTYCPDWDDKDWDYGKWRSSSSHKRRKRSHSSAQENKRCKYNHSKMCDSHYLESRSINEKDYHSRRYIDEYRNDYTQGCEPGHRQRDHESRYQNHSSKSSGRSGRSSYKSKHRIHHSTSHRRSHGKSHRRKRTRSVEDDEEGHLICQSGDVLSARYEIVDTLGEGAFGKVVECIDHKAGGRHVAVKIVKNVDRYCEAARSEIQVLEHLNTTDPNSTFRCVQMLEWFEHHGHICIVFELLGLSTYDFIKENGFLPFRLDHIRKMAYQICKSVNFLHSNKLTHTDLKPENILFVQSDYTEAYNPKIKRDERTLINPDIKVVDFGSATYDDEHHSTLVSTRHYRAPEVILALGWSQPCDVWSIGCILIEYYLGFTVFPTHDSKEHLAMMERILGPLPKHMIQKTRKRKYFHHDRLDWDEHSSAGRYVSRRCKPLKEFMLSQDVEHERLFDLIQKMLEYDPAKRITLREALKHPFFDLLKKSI

T-24 = experiment: Antiproliferative activity against human T24 cells assessed as cell growth inhibition measured after 3 days by MTT assay; assay type: functional; conditions: T-24, 72 h, time 3 day
[2] = target: T1, Dual specificity protein kinase CLK1; experiment: Inhibition of human recombinant GST-tagged Clk1 (129 to 484 residues) expressed in Escherichia coli expression system using GRSRSRSRSRSRSRS peptide as substrate incubated for 15 mins in presence of ATP by phosphoimager analysis
Target sequence in this assay (P49759 whole entry, the tested form may be a part): as the sequence (P49759 whole entry, looked up, the tested form may be a part) above

[3] = target: T2, Dual specificity protein kinase CLK2 (Homo sapiens, UniProt P49760); experiment: Inhibition of human recombinant GST-tagged Clk2 expressed in Baculovirus expression system using GRSRSRSRSRSRSRS peptide as substrate incubated for 15 mins in presence of ATP by phosphoimager analysis
Target sequence in this assay (P49760 whole entry): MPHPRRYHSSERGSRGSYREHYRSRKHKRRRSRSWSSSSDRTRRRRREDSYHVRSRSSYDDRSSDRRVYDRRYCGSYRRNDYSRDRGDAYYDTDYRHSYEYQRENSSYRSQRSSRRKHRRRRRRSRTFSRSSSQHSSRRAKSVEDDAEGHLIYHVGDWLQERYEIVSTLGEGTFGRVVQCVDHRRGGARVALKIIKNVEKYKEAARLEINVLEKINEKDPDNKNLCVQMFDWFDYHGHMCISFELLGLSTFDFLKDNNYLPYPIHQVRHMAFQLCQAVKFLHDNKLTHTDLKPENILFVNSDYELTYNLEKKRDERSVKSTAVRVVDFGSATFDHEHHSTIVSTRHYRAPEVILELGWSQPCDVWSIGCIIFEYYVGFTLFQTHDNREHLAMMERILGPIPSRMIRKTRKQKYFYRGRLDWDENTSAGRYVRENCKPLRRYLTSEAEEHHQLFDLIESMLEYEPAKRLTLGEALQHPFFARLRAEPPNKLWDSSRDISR

Homo sapiens [4] = species on record: Homo sapiens; experiment: Selectivity index, ratio of IC50 for human Clk2 to IC50 for human Clk1 by phosphoimager analysis
[5] = target: T2, Dual specificity protein kinase CLK2; experiment: Inhibition of human recombinant GST-tagged Clk2 expressed in Baculovirus expression system at 0.25 uM using GRSRSRSRSRSRSRS peptide as substrate incubated for 15 mins in presence of ATP by phosphoimager analysis relative to control
Target sequence in this assay (P49760 whole entry, looked up): as the sequence (P49760 whole entry) above

Homo sapiens [6] = species on record: Homo sapiens; experiment: Inhibition of CK2 (unknown origin) at 1 uM relative to control
[7] = target: Dual specificity protein kinase CLK3 (Homo sapiens) (UniProt P49761); experiment: Inhibition of human recombinant GST-tagged full length CLK3 expressed in Baculovirus expression system at 1 uM relative to control
Chain of Dual specificity protein kinase CLK3 (Homo sapiens) (P49761 whole entry, looked up): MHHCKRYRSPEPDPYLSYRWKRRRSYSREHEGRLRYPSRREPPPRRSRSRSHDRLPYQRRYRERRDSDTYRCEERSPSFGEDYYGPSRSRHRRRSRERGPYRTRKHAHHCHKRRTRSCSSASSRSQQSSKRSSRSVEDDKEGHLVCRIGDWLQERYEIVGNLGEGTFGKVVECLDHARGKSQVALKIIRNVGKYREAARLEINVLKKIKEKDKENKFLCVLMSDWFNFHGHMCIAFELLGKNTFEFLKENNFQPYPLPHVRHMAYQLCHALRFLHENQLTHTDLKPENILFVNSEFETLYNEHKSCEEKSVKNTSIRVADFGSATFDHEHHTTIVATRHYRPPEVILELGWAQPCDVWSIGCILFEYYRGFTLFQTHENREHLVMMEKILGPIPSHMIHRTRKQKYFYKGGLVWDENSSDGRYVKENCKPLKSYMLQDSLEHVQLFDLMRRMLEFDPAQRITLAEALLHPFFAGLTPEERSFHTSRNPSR

[8] = target: SRSF protein kinase 1 (Homo sapiens) (UniProt Q96SB4); experiment: Inhibition of human recombinant His tagged full length SRPK1 expressed in Baculovirus expression system at 1 uM relative to control
Chain of SRSF protein kinase 1 (Homo sapiens) (Q96SB4 whole entry, the tested form may be a part): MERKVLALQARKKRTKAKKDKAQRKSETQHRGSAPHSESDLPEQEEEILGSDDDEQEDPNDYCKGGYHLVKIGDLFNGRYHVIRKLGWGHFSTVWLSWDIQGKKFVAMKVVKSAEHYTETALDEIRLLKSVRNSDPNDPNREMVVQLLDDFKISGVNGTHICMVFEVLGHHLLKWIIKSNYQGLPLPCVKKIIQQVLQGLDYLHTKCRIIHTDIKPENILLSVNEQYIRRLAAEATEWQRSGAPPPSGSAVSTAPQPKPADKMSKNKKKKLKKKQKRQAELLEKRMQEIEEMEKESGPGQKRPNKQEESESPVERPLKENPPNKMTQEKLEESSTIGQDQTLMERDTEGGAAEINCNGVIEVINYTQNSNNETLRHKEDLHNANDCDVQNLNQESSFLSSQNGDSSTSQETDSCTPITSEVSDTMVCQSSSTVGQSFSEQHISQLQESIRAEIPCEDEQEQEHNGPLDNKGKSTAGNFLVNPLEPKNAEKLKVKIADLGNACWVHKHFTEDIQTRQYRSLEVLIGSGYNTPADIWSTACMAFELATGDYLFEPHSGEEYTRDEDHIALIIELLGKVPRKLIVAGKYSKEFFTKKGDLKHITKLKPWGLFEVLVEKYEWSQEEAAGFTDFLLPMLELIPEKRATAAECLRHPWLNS

[9] = target: T3, Serine/threonine-protein kinase haspin (Homo sapiens) (UniProt Q8TF76); experiment: Inhibition of human recombinant GST tagged full length Haspin catalytic domain expressed in Baculovirus expression system at 1 uM relative to control
T3 sequence (whole entry): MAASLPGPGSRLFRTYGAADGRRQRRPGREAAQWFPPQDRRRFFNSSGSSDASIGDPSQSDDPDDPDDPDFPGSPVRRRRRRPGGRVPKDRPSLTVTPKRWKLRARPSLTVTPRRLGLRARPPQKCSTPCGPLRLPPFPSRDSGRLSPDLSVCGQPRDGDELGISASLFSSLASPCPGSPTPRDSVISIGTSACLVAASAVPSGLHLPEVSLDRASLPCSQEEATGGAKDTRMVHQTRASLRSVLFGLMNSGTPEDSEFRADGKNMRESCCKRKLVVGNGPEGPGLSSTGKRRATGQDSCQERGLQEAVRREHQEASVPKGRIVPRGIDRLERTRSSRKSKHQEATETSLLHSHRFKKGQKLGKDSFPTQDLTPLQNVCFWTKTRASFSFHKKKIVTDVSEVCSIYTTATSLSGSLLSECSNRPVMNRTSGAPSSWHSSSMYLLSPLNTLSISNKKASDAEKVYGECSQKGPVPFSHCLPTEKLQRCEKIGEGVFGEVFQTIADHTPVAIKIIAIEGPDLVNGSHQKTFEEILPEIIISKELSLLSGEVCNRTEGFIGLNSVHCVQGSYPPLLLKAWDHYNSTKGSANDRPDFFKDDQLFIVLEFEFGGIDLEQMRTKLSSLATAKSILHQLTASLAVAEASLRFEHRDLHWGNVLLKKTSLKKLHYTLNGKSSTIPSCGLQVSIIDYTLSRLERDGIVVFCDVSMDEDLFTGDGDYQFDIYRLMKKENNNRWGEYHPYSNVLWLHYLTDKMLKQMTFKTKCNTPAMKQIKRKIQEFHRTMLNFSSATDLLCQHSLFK

[10] = target: BDNF/NT-3 growth factors receptor (Homo sapiens) (UniProt Q16620); experiment: Inhibition of human recombinant His tagged full length TRKB expressed in Baculovirus expression system at 1 uM relative to control
[11] = target: Cyclin-dependent kinase 5/CDK5 activator 1 (Homo sapiens) (UniProt Q00535+Q15078); experiment: Inhibition of human recombinant GST tagged/His-tagged full length CDK5/p25 expressed in Baculovirus expression system at 1 uM relative to control
[12] = target: T4, Dual specificity tyrosine-phosphorylation-regulated kinase 2 (Homo sapiens) (UniProt Q92630); experiment: Inhibition of human recombinant GST tagged full length DYRK2 expressed in Escherichia coli expression system at 1 uM relative to control
T4 sequence (whole entry): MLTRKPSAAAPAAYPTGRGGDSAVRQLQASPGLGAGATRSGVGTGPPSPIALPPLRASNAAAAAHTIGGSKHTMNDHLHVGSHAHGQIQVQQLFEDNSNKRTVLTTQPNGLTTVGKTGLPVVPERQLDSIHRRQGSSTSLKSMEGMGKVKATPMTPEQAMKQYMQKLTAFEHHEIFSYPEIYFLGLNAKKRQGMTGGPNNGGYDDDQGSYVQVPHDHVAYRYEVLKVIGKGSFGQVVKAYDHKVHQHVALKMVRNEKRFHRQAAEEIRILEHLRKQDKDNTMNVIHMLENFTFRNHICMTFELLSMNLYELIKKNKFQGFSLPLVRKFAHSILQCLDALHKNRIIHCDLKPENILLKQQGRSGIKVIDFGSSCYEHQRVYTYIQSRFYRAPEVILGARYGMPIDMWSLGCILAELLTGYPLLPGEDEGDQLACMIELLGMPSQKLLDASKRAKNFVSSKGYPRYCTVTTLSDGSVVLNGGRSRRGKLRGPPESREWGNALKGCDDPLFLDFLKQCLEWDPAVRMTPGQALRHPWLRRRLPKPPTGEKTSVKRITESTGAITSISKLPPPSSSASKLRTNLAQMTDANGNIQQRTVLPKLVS

[13] = target: Casein kinase I isoform delta (Homo sapiens) (UniProt P48730); experiment: Inhibition of human recombinant GST tagged full length CSNK1D expressed in Baculovirus expression system at 1 uM relative to control
Chain of Casein kinase I isoform delta (Homo sapiens) (P48730 whole entry, looked up, canonical isoform): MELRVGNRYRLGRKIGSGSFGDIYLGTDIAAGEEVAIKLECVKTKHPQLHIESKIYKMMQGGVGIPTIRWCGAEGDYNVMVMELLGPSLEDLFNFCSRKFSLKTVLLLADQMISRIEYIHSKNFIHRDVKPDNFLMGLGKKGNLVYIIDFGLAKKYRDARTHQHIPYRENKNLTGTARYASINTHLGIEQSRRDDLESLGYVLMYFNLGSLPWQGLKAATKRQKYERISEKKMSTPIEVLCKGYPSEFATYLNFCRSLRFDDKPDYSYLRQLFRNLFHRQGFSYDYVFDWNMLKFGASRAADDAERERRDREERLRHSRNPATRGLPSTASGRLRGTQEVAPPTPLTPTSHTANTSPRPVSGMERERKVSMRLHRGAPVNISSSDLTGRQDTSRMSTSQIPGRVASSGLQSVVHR

[14] = target: Homeodomain-interacting protein kinase 1 (Homo sapiens) (UniProt Q86Z02); experiment: Inhibition of human recombinant GST tagged HIPK1 expressed in Baculovirus expression system at 1 uM relative to control
Chain of Homeodomain-interacting protein kinase 1 (Homo sapiens) (Q86Z02 whole entry, looked up): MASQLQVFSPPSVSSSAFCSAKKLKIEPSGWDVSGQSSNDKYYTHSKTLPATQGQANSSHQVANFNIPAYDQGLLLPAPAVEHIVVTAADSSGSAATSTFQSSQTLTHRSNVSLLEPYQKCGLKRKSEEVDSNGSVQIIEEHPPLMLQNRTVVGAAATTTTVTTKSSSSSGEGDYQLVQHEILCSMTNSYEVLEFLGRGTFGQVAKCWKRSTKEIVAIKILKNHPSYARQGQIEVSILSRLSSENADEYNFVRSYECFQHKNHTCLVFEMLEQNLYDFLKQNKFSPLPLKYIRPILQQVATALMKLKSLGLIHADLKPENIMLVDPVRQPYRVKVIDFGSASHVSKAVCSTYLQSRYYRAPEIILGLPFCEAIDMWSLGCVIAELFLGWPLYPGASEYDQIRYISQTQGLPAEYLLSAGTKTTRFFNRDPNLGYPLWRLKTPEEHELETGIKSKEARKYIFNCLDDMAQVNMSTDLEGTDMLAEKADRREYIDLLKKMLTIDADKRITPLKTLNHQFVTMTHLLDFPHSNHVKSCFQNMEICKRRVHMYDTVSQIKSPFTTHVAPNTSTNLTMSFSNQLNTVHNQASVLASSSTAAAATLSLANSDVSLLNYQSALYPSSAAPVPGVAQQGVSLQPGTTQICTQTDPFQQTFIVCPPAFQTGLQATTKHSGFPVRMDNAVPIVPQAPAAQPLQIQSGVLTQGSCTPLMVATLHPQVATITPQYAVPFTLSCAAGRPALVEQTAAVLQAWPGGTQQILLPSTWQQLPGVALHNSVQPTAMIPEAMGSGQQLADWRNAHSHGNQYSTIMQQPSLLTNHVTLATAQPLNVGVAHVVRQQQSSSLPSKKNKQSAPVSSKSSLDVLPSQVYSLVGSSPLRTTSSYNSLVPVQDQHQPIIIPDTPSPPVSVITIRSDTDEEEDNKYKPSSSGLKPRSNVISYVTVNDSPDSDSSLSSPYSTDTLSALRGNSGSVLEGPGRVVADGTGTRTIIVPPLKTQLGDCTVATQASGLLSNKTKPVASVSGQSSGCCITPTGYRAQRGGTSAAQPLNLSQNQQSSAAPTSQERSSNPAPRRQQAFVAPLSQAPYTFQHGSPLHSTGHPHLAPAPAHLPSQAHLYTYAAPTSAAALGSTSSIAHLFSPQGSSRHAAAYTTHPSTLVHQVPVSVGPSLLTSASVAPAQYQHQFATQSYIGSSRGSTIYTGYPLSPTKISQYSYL

[15] = target: T5, Dual specificity protein kinase CLK4 (Homo sapiens, UniProt Q9HAZ1); experiment: Inhibition of human recombinant GST tagged full length CLK4 expressed in Baculovirus expression system at 1 uM
Target sequence in this assay (Q9HAZ1 whole entry): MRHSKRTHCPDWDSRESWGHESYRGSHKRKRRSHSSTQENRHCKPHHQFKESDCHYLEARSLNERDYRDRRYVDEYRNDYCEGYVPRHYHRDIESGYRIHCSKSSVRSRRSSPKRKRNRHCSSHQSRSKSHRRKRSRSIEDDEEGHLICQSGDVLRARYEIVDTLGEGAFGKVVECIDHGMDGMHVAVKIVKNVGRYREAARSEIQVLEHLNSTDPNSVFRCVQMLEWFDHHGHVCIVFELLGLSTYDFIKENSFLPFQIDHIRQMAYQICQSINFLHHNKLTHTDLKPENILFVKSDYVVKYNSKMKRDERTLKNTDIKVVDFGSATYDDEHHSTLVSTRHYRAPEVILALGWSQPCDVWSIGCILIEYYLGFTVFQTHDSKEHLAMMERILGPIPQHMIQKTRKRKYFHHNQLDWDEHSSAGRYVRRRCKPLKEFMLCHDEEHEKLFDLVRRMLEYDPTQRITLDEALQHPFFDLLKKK

[16] = target: Dual specificity tyrosine-phosphorylation-regulated kinase 1A (Homo sapiens) (UniProt Q13627); experiment: Inhibition of human recombinant GST tagged full length DYRK1A expressed in Baculovirus expression system at 1 uM relative to control
[17] = target: Serine/threonine-protein kinase pim-1 (Homo sapiens) (UniProt P11309); experiment: Inhibition of human recombinant His tagged full length Pim1 expressed in Baculovirus expression system at 1 uM relative to control
Chain of Serine/threonine-protein kinase pim-1 (Homo sapiens) (P11309 whole entry, looked up): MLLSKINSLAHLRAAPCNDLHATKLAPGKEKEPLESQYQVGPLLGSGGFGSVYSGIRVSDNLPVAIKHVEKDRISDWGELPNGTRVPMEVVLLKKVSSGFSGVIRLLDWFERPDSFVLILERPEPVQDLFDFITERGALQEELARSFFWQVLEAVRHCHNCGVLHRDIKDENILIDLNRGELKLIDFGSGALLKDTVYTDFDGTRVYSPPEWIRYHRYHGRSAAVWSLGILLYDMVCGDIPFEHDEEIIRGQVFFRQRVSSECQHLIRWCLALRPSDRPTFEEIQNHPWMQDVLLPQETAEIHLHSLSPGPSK

[18] = target: T5, Dual specificity protein kinase CLK4; experiment: Inhibition of human recombinant GST tagged full length CLK4 expressed in Baculovirus expression system at 1 uM relative to control
Target sequence in this assay (Q9HAZ1 whole entry, looked up): as the sequence (Q9HAZ1 whole entry) above

Homo sapiens [19] = species on record: Homo sapiens; experiment: Selectivity ratio of IC50 for human DYRK1A to IC50 for human Clk1
Homo sapiens [20] = species on record: Homo sapiens; experiment: Selectivity ratio of IC50 for human Clk2 to IC50 for human Clk1
Homo sapiens [21] = species on record: Homo sapiens; experiment: Selectivity ratio of IC50 for human Clk2 to IC50 for human Clk1 by ADP-Glo assay

COc1ccc(C(=O)NC(=O)c2cc3cc(OC)ccc3s2)c(OC)c1
inhibition [1]: 42.2%
GI50 (T-24): > 15000 nM

COc1ccc2sc(C(=O)NC(=O)c3cc(Cl)cnc3OC)cc2c1
inhibition [1]: 44.9%

COc1ccc2sc(C(=O)NC(=O)c3c(OC)cccc3OC)cc2c1
inhibition [1]: 12.2%

COc1ccc2sc(C(=O)NC(=O)c3cc(F)ccc3F)cc2c1
inhibition [1]: 65.6%
IC50 [2]: 70 nM

COc1ccc2sc(C(=O)NC(=O)c3cccc(Cl)c3OC)cc2c1
inhibition [1]: 2.2%

COc1ccc2sc(C(=O)NC(=O)c3ccccc3C)cc2c1
inhibition [1]: 6.5%

COc1ccc2sc(C(=O)NC(=O)c3cccc(Cl)n3)cc2c1
inhibition [1]: 33%

COc1ccc2sc(C(=O)NC(=O)c3cccc(F)c3)cc2c1
inhibition [1]: 38.5%

COc1ccc2sc(C(=O)NC(=O)c3cc(F)ccc3OC)cc2c1
IC50 [3]: 250 nM
inhibition [1]: 83.3%
Ratio IC50 (Homo sapiens [4]): 13.6
IC50 [2]: 18.4 nM
inhibition [5]: 52.6%

COc1ccc2sc(C(=O)NC(=O)c3ccc(F)cc3)cc2c1
inhibition [1]: 35.7%

COc1ccc2sc(C(=O)NC(=O)c3ccc(Cl)cc3OC)cc2c1
inhibition [1]: 49.5%

COc1ccc2sc(C(=O)NC(=O)c3ccccc3OC(F)(F)F)cc2c1
inhibition [1]: 64.4%
GI50 (T-24): 1100 nM
IC50 [2]: 49 nM

COc1ccc2sc(C(=O)NC(=O)c3cc(Cl)ccc3OC)cc2c1
inhibition (Homo sapiens [6]): 4%
inhibition [7]: 57%
inhibition [8]: 8%
inhibition [9]: 24%
IC50 [3]: 486 nM
inhibition [1]: 87.1%
inhibition [10]: 3%
Ratio IC50 (Homo sapiens [4]): 50
GI50 (T-24): 1100 nM
inhibition [11]: 3%
inhibition [12]: 14%
IC50 [2]: 9.7 nM
inhibition [13]: 7%
inhibition [14]: 1%
IC50 [15]: 6.6 nM
inhibition [16]: 45%
inhibition [17]: 31%
inhibition [5]: 19.9%
inhibition [18]: 45%

COc1ccc2sc(C(=O)NC(=O)c3ccc(C)cc3OC)cc2c1
inhibition [1]: 50.9%

COc1ccc2sc(C(=O)NC(=O)c3cccc4c3OCCO4)cc2c1
inhibition [1]: 9.2%

COc1ccc2sc(C(=O)NC(=O)c3ccc(Br)cc3OC)cc2c1
IC50 [3]: > 250 nM
inhibition [1]: 61%
Ratio IC50 (Homo sapiens [4]): > 3.3
IC50 [2]: 75 nM
inhibition [5]: 3.4%

COc1ccc2sc(C(=O)NC(=O)c3cc(F)cc(F)c3)cc2c1
inhibition [1]: 54.6%

COc1ccc2sc(C(=O)NC(=O)c3ccccc3)cc2c1
inhibition [1]: 56.1%

COc1ccc2sc(C(=O)NC(=O)c3cc(C)on3)cc2c1
inhibition [1]: 7.3%

COc1ccc2sc(C(=O)NC(=O)c3cccc(OC)c3OC)cc2c1
inhibition [1]: 27.7%

COc1ccc2sc(C(=O)NC(=O)c3cc(C(F)(F)F)ccc3OC)cc2c1
inhibition [1]: 9.6%

CCCOc1ccccc1C(=O)NC(=O)c1cc2cc(OC)ccc2s1
inhibition [1]: 62.3%
IC50 [2]: 89.8 nM

CCOc1ccccc1C(=O)NC(=O)c1cc2cc(OC)ccc2s1
inhibition [1]: 63.3%
GI50 (T-24): < 100 nM
IC50 [2]: 79.4 nM

COc1ccc2sc(C(=O)NC(=O)c3ccc(F)cc3OC)cc2c1
inhibition (Homo sapiens [6]): 5%
inhibition [7]: 59%
inhibition [8]: 4%
inhibition [9]: 29%
IC50 [3]: > 250 nM
inhibition [1]: 74.5%
inhibition [10]: 10%
Ratio IC50 (Homo sapiens [4]): > 62.5
GI50 (T-24): > 15000 nM
IC50 [2]: 4 nM
inhibition [13]: 11%
inhibition [14]: 7%
inhibition [16]: 48%
inhibition [17]: 52%
inhibition [5]: 47.1%
inhibition [18]: 96%

COc1cc(F)c(C(=O)NC(=O)c2cc3cc(OC)ccc3s2)c(F)c1
inhibition [1]: 10.6%

COc1ccc2sc(C(=O)NC(=O)c3ccccc3OC)cc2c1
inhibition [1]: 86.6%
IC50 [2]: 34.6 nM

COc1ccc2sc(C(=O)NC(=O)c3cccc(OC)n3)cc2c1
inhibition [1]: 42.3%

COc1ccc2sc(C(=O)NC(=O)c3cccc4c3OC(F)(F)O4)cc2c1
inhibition [1]: 43.1%

COc1ccc2sc(C(=O)NC(=O)c3ccccc3Cl)cc2c1
inhibition [1]: 61.4%
IC50 [2]: 92 nM

COc1ccc2sc(C(=O)NC(=O)c3ccc(OC)c(F)c3)cc2c1
inhibition [1]: 5.9%

COc1ccc2sc(C(=O)NC(=O)c3cc(C)cc(F)c3)cc2c1
inhibition [1]: 51.8%

COc1ccc2sc(C(=O)NC(=O)c3ccno3)cc2c1
inhibition [1]: 12.1%

COc1cccc(C(=O)NC(=O)c2cc3cc(OC)ccc3s2)c1
inhibition [1]: 36.5%

COc1ccc2sc(C(=O)N(C)Cc3cc(F)cc(F)c3)cc2c1
Ratio IC50 (Homo sapiens [19]): 28
Ratio IC50 (Homo sapiens [20]): 9.8

COc1ccc2sc(C(=O)NC(=O)c3cccc(F)n3)cc2c1
IC50 [3]: 250 nM
inhibition [1]: 67.1%
Ratio IC50 (Homo sapiens [4]): 12
GI50 (T-24): > 15000 nM
IC50 [2]: 20.9 nM
inhibition [5]: 53.8%

COc1ccc2sc(C(=O)NC(=O)c3ccc(OC)c(OC)c3)cc2c1
inhibition [1]: 12.4%

COc1ccc(OC)c(C(=O)NC(=O)c2cc3cc(OC)ccc3s2)c1
inhibition [1]: 30.8%

COc1ccc(F)c(C(=O)NC(=O)c2cc3cc(OC)ccc3s2)c1
inhibition [1]: 7.8%

CC(C)(C)c1ccc(C(=O)Nc2cn3cc(-c4cn[nH]c4)ccc3n2)cn1
Ratio IC50 (Homo sapiens [21]): 2.2

COc1ccc2sc(C(=O)N(C)C(=O)c3ccccc3OC)cc2c1
inhibition [1]: 15.7%

COc1ccc2sc(C(=O)NC(=O)c3cc(C)ccc3OC)cc2c1
inhibition [1]: 42.7%

COc1ccc2sc(C(=O)NC(=O)c3ccccc3F)cc2c1
inhibition [1]: 16.5%
